Test results as given in patent publication US12263155B2, “Combinations of monoamine oxidase inhibitors and serotonin receptor agonists and their therapeutic use” (Remedi, Inc., priority 2022, dated 2025).

Columns and labels:
rat brain MAO-A = molecular target: T1, rat brain MAO-A (Rattus norvegicus, UniProt P21396); assay: In vitro inhibition of rat brain MAO-A; type: biochemical
T1 construct: prepared from brain homogenates of male Sprague-Dawley rats, served as the source of MAO-A enzymatic activity; from tissue
T1 sequence (P21396 1-526): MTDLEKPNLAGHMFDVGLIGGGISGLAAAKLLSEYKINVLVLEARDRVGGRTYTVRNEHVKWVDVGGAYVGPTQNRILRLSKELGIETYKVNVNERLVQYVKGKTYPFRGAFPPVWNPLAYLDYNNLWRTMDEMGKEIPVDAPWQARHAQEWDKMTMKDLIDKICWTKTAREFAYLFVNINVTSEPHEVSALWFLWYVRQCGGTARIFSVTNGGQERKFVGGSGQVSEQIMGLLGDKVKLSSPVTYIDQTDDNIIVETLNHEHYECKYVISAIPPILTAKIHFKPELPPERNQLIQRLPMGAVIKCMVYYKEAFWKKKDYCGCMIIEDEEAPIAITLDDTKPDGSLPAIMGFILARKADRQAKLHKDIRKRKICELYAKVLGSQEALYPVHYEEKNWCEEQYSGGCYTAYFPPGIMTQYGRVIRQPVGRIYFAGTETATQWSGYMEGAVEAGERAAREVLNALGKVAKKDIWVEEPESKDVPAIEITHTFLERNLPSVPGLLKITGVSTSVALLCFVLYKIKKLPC
Protocol: Methods: The soluble extract of the mitochondrial enriched fraction (P2 pellet), which was prepared from brain homogenates of male Sprague-Dawley rats, served as the source of MAO-A enzymatic activity. The P2 fraction was prepared and was stored frozen until being thawed for use on the day of assay. Final concentrations of 50 μM [^14C]-serotonin (5-HT) and 10 μM [^14C]-phenylethylamine (PEA) were employed as specific substrates for MAO-A and MAO-B, respectively. Test compound inhibition was based on competition for oxidation of these radio-labeled substrates. MAO-A assay specificity was enhanced by inclusion of 0.1 μM deprenyl to prevent substrate oxidation by MAO-B. Likewise, MAO-B assays included 0.1 μM clorgyline to block MAO-A activity. […] Inhibition of enzymatic activities was expressed as IC50 and as the Ki, which was calculated using the Cheng-Prusoff equation.

[1] = Phase I 14-day twice-daily pharmacokinetics; conditions: for concentration at 12 h: C12h
Protocol: Methods: The study was a Phase I, single-center, randomized, parallel-group, multiple-dose, placebo-controlled, pharmacodynamic, pharmacokinetic and safety study in healthy volunteers. To obtain 24 enrolled subjects, screening procedures and inclusion/exclusion criteria were evaluated for 54 subjects during a variable screening period of up to 28 days. Once enrolled, subjects were randomized to either CX157 10 mg, 20 mg or 40 mg or matching placebo administered twice daily for 14 consecutive days.
Formulations: Each natural/transparent Licaps® size 0 hard gelatin capsule contains 10 mg CX157 in Labrasol™; each capsule is banded with a green gelatin band comprised of gelatin NF and polysorbate-80 NF. CX157 Liquid Filled Capsules are packaged in white, opaque, high density polyethylene (HDPE) bottles with screw-top polypropylene child resistant caps. Each bottle contains 30 capsules. CX157 Liquid Filled Capsules, 5 and 10 mg are stored long-term at controlled room temperature conditions [15-30° C. (59-86° F.)].

[2] = healthy volunteers, 10 mg twice daily, Day 1, mean
[3] = healthy volunteers, 10 mg twice daily, Day 14, mean
[4] = healthy volunteers, 20 mg twice daily, Day 1, mean
[5] = healthy volunteers, 20 mg twice daily, Day 14, mean
[6] = healthy volunteers, 40 mg twice daily, Day 1, mean
[7] = healthy volunteers, 40 mg twice daily, Day 14, mean, N = 4
[8] = human, plasma, oral, 10 mg, healthy volunteers, 10 mg twice daily, Day 1, mean
[9] = human, plasma, oral, 10 mg, healthy volunteers, 10 mg twice daily, Day 14, mean
[10] = human, plasma, oral, 20 mg, healthy volunteers, 20 mg twice daily, Day 1, mean
[11] = human, plasma, oral, 20 mg, healthy volunteers, 20 mg twice daily, Day 14, mean
[12] = human, plasma, oral, 40 mg, healthy volunteers, 40 mg twice daily, Day 1, mean
[13] = human, plasma, oral, 40 mg, healthy volunteers, 40 mg twice daily, Day 14, mean, N = 4

O=S1(=O)c2ccc(F)cc2Oc2cc(OCC(F)(F)F)ccc21 [CX157, 3-fluoro-7(2,2,2-trifluorethoxy)phenoxathiine-10,10-dioxide]
Ki for CX157/Ki for RO-41-1049 (rat brain MAO-A; Brain MAO-A): 0.006
Ki fold lower than reference compound RO 41-1049 (rat brain MAO-A; rat brain MAO-A): > 10 fold
IC50 (rat brain MAO-A; rat brain P2 extract, 50 μM [14C]-5-HT): 0.09 nM
Ki (rat brain MAO-A; rat brain, Cheng-Prusoff): 0.09 nM
AUC0-12h/Dose [1, 2]: 380
Cmax/Cmin [1, 2]: 31.4 ratio
Cmax/Dose [1, 2]: 137
Tmin [1, 2]: 10.7 h
AUC0-12h/Dose [1, 3]: 753
CSS [1, 3]: 8.1 ng/mL
Cmax/Cmin [1, 3]: 6.64 ratio
Cmax/Dose [1, 3]: 185
Tmin [1, 3]: 12 h
AUC0-12h/Dose [1, 4]: 312
Cmax/Cmin [1, 4]: 36.7 ratio
Cmax/Dose [1, 4]: 128
Cmin [1, 4]: 1.13 ng/mL
Tmin [1, 4]: 12 h
AUC0-12h/Dose [1, 5]: 400
Cmax/Cmin [1, 5]: 10.8 ratio
Cmax/Dose [1, 5]: 104
Cmin [1, 5]: 3.05 ng/mL
Tmin [1, 5]: 12 h
% AUCextrap ([1]; healthy volunteers, 20 mg twice daily, Day 14, mean, N = 2): 19.0c %
AUC0-12h/Dose [1, 6]: 363
Cmax/Cmin [1, 6]: 28.2 ratio
Cmax/Dose [1, 6]: 136
Cmin [1, 6]: 2.52 ng/mL
Tmin [1, 6]: 12 h
% AUCextrap [1, 7]: 16.5%
AUC0-12h/Dose [1, 7]: 687
CSS [1, 7]: 29.6 ng/mL
Cmax/Cmin [1, 7]: 15.6 ratio
Cmax/Dose [1, 7]: 320
Cmin [1, 7]: 8.8 ng/mL
Tmin [1, 7]: 12 h
half-life ([1]; human, plasma, oral): 33.3 to 35.3 h
AUC(0-t) ([1]; human, plasma, oral, 10 mg, AUC0-12h, healthy volunteers, 10 mg twice daily, Day 1, mean): 50 ng·h/mL
AUC(0-t) ([1]; human, plasma, oral, 10 mg, AUC0-12h, healthy volunteers, 10 mg twice daily, Day 14, mean): 97 ng·h/mL
AUC(0-t) ([1]; human, plasma, oral, 10 mg, AUClast, healthy volunteers, 10 mg twice daily, Day 14, mean): 180 ng·h/mL
concentration at 12 h [1, 8]: 0.63 ng/mL
concentration at 12 h [1, 9]: 3 ng/mL
Cmax [1, 8]: 18.1 ng/mL
Cmax [1, 9]: 24.2 ng/mL
concentration at 1 day ([1]; human, plasma, oral, 10 mg, Cmin, healthy volunteers, 10 mg twice daily, Day 1, mean): 0.6 ng/mL
concentration at 14 day ([1]; human, plasma, oral, 10 mg, Cmin, healthy volunteers, 10 mg twice daily, Day 14, mean): 3 ng/mL
Tmax ([1]; human, plasma, oral, 10 mg, healthy volunteers, 10 mg twice daily, Day 1, median): 1 h
Tmax ([1]; human, plasma, oral, 10 mg, healthy volunteers, 10 mg twice daily, Day 14, median): 1 h
AUC(0-inf) ([1]; human, plasma, oral, 20 mg): 433 ng·h/mL
half-life ([1]; human, plasma, oral, 20 mg): 33.3 h
AUC(0-t) ([1]; human, plasma, oral, 20 mg, AUC0-12h, healthy volunteers, 20 mg twice daily, Day 1, mean): 83.5 ng·h/mL
AUC(0-t) ([1]; human, plasma, oral, 20 mg, AUC0-12h, healthy volunteers, 20 mg twice daily, Day 14, mean): 115 ng·h/mL
AUC(0-t) ([1]; human, plasma, oral, 20 mg, AUClast, healthy volunteers, 20 mg twice daily, Day 14, mean): 191 ng·h/mL
concentration at 12 h [1, 10]: 1.13 ng/mL
concentration at 12 h [1, 11]: 3.05 ng/mL
concentration at 14 day ([1]; human, plasma, oral, 20 mg, CSS, healthy volunteers, 20 mg twice daily, Day 14, mean): 9.6 ng/mL
Cmax [1, 10]: 32.3 ng/mL
Cmax [1, 11]: 30.1 ng/mL
Tmax ([1]; human, plasma, oral, 20 mg, healthy volunteers, 20 mg twice daily, Day 1, median): 1.25 h
Tmax ([1]; human, plasma, oral, 20 mg, healthy volunteers, 20 mg twice daily, Day 14, median): 1.5 h
AUC(0-inf) ([1]; human, plasma, oral, 40 mg): 712 ng·h/mL
half-life ([1]; human, plasma, oral, 40 mg): 35.3 h
AUC(0-t) ([1]; human, plasma, oral, 40 mg, AUC0-12h, healthy volunteers, 40 mg twice daily, Day 1, mean): 186 ng·h/mL
AUC(0-t) ([1]; human, plasma, oral, 40 mg, AUC0-12h, healthy volunteers, 40 mg twice daily, Day 14, mean, N = 4): 355 ng·h/mL
AUC(0-t) ([1]; human, plasma, oral, 40 mg, AUClast, healthy volunteers, 40 mg twice daily, Day 14, mean, N = 4): 602 ng·h/mL
concentration at 12 h [1, 12]: 2.52 ng/mL
concentration at 12 h [1, 13]: 8.8 ng/mL
concentration at 14 day ([1]; human, plasma, oral, 40 mg, CSS, healthy volunteers, 40 mg twice daily, Day 14, mean, N = 4): 29.6 ± 19.6 ng/mL
Cmax [1, 12]: 69.5 ng/mL
Cmax [1, 13]: 166 ± 179 ng/mL
Tmax ([1]; human, plasma, oral, 40 mg, healthy volunteers, 40 mg twice daily, Day 1, median): 1.08 h
Tmax ([1]; human, plasma, oral, 40 mg, healthy volunteers, 40 mg twice daily, Day 14, median, N = 4): 0.5 h
AUC(0-t) ([1]; human, plasma, oral, 40 mg, mean AUC0-12h, 40 mg twice daily, Day 14): 355 ± 235 ng·h/mL
